Data set [1] relates to MC38 cells. As to the kind of experiment: In vivo efficacy in MC38 cell tumor transplantation mouse model. The conditions noted are these: 50 mg/kg oral once a day. The method, then:
(§1) In this example, the experimental effects of Compound 2 and the control compound PLX3397 (purchased from MedChem Express, China) in MC38 and 4T1 mouse models were tested respectively.
(§2) The experimental procedure was as follows: • (1) C57BL/6J male mice for use as MC38 transplanted tumor model and Balb/c male mice for use as 4T1 transplanted tumor model, which were 6 weeks old, were purchased from GemPharmatech Co., Ltd, Jiangsu. All the above mice were raised in an SPF laboratory, and the drinking water and padding had been sterilized by high pressure sterilization. All operations related to mice were performed under sterile conditions. • (2) On day 0, approximately 1×10^6 MC38 cells (purchased from ATCC) were injected subcutaneously into the left back of each of the C57BL/6J mice, and approximately 1×10^6 4T1 cells (purchased from ATCC) were injected subcutaneously into the left back of each of the Balb/c mice. • (3) For the MC38 mouse model, starting from the 6th day, the corresponding mice were orally administered with methylcellulose (HKI) (purchased from China National Pharmaceutical Group Corporation) solvent once a day (5 mice); Compound 2 at a dose of 50 mg/kg mouse weight once a day (5 mice); PLX3397 at a dose of 50 mg/kg mouse weight once a day (5 mice). For the 4T1 mouse model, starting from the 6th day, the corresponding mice were orally administered with 10% HS-15 (purchased from BASF, Germany) solvent (5 mice); Compound 2 at a dose of 50 mg/kg mouse weight once a day (5 mice); PLX3397 at a dose of 50 mg/kg mouse weight once a day (5 mice). • (4) Starting from the 6th day, the length/width of the subcutaneous tumor was measured with a vernier caliper every day, and the weight of the mice was recorded every day to determine the effects of Compound 2 and control compound PLX3397 on the weight of mice in different model mice. The results are shown in FIGS. 3 and 6. • (5) The growth trends of subcutaneous tumors in mice of different models were statistically analyzed. The tumor volume was calculated using the following method: length×width×width/2 mm^3. The results are shown in FIGS. 4 and 7. • (6) Isolation of tumor-infiltrating lymphocytes: Tumor tissue was first minced (tissue block less than 1 mm^3) with a surgical blade, resuspended in 6 ml of digestion solution (collagenase IV and 0.005% DNaseI enzyme, both purchased from Sigma, USA), and the mixture was transferred to a 15-ml centrifuge tube. The centrifuge tube was then placed in a shaker at 37° C. and digested with shaking at 220 r/min for 2 hours. The cells were sieved through a 200-mesh sieve and collected in a 50-ml centrifuge tube, and centrifuged at 1500 rpm for 10 minutes. The supernatant was then discarded, and 10 ml of DMEM medium (10% FBS) (purchased from GIBCO, USA) was added to the tube to terminate the digestion. The tube was placed in a centrifuge, and centrifuged at 1500 rpm for another 10 minutes. The supernatant was discarded. At the same time, Percoll separation solution (purchased from Millipore, USA) was prepared, and 90% Percoll separation working solution was prepared using 10×PBS. To a 15 ml centrifuge tube, 3-4 ml of 70% Percoll separation solution was added. The cells were resuspended in 4 ml of 40% Percoll separation solution, and the cell mixture was added to the 70% Percoll separation solution. The centrifuge tube was placed in a centrifuge and subjected to density gradient centrifugation at 25° C., 1260 g, for 30 minutes (speed up 5, speed down 0). After the centrifugation, the centrifuge tube was placed on a centrifuge tube rack, the middle leukocyte layer was aspirated with a pipette, and added to 10 ml of PBS, they were mixed well and placed in a centrifuge, and centrifuged at 1500 rpm. The cell supernatant was discarded after 10 min and the cells were resuspended in 5 ml of PBS, centrifuged at 1500 rpm for another 10 min, and the washing process was repeated once. The cells obtained were leukocytes in the tumor tissue. […]

Data set [2] relates to 4T1 cells. As to the kind of experiment: In vivo efficacy in 4T1 cell tumor transplantation mouse model. The settings on record: 4T1 model, 50 mg/kg oral once a day. As for the experimental part: as §1, §2
The target in data set [3] is T1, TEL-CSF1R-BaF3 (Homo sapiens, UniProt P07333).
T1 construct: expressed in transfected cells; host or cells: mouse BaF3 cells (ATCC), retroviral transduction with MSCV-Puro vector, IL-3 withdrawn; the other entry of the earlier key: ETV6 (P41212, Transcription factor ETV6)
T1 sequence (P07333 582-910 limits assumed): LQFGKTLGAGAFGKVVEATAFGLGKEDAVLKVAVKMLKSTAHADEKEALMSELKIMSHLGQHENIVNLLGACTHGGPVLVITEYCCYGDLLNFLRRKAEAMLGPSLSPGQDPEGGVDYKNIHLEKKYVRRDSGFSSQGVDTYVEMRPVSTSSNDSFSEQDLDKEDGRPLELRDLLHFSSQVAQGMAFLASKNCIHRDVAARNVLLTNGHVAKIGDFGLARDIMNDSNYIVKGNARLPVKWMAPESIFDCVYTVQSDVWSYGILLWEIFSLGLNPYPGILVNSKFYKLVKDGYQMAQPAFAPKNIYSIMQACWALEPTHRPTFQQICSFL
The experiment in a line: Proliferation of TEL-CSF1R-BaF3 cells (CCK-8, 72 hours). It is filed as cell-based. The settings on record: 72 hours incubation, CCK-8. As for the experimental part: (§3) The incubated cells were detected by CCK-8 (purchased from MedChem Express, China) cell viability detection kit (CCK-8 can be reduced by dehydrogenases in living cells to a highly water-soluble yellow formazan product, and the amount of the generated formazan product is proportional to the number of living cells). The number of living cells was quantified by a microplate reader, and the GI50 for each compound was calculated (the results are shown in Table 2).
The construction method of the TEL-CSF1R-BaF3 cell line (a cell line stably expressing CSF1R kinase) was as follows: the sequence of human CSF1R kinase region was amplified by PCR and inserted into the MSCV-Puro vector (Clontech) with an N-terminal TEL fragment, and stably transferred into mouse BaF3 cells (purchased from ATCC, USA) by a retroviral method, and IL-3 growth factor was removed, finally a cell line dependent on CSF1R transferred protein was obtained.

Data set [4] relates to M-NSF-60. As to the kind of experiment: Proliferation of M-NSF-60 cells with M-CSF (CCK-8, 72 hours). The settings on record: Mus musculus, read-out: M-NSF-60 (GI50/μM). Type of data set: cell-based, mouse. The method, then: as §3
The mark [5] stands for this setting: M-CSF 50 ng/ml in medium, 72 hours incubation, CCK-8.

Like-named read-outs stand apart in the source and are kept apart here.

As to `FC(F)(F)c1ccc(CNc2ccc(Cc3c[nH]c4ncc(Cl)cc34)cn2)cn1` [PLX3397, reference compound], the “toxicity (mouse body weight)” value in data set [1] (FIG. 3) and in data set [2] (FIG. 6) was “no obvious toxicity” throughout. Also, the “inhibition effect of mouse tumors” value in data set [1] (FIG. 4) and in data set [2] (FIG. 7) was “good inhibition effect of mouse tumors” in each case.

`COc1cc2nccc(Oc3ccc(NC(=O)Cc4ccc(F)c(C(F)(F)F)c4)cc3)c2cc1OC` [Example 13, N-(4-((6,7-dimethoxyquinolin-4-yl)oxy)phenyl)-2-(4-fluoro-3-(trifluoromethyl)phenyl)acetamide]: the results for the GI50 in data set [3] and in data set [4] (setting [5]) were 0.002 µM and 0.018 µM, respectively.

As to `COc1cc2nccc(Oc3ccc(NC(=O)Cc4ccc5c(c4)OCO5)cc3)c2cc1OC` [Example 18, N-(4-((6,7-dimethoxyquinolin-4-yl)oxy)phenyl)-2-(benzo[d][1,3]dioxol-5-yl)acetamide], the GI50 in data set [3] came to 0.002 µM; in data set [4] (setting [5]), 0.062 µM.

As for `COc1cc2nccc(Oc3ccc(NC(=O)Cc4ccc(Cl)c(Cl)c4)cc3)c2cc1OC` [Example 17, N-(4-((6,7-dimethoxyquinolin-4-yl)oxy)phenyl)-2-(3,4-dichlorophenyl)acetamide], the GI50 in data set [3] was 0.002 µM; in data set [4] (setting [5]) it was 0.042 µM.

For the compound `COc1cc2nccc(Oc3ccc(NC(=O)Cc4ccc(Cl)c(C(F)(F)F)c4)cc3OC)c2cc1OC` [Example 37, N-(3-methoxy-4-((6,7-dimethoxyquinolin-4-yl)oxy)phenyl)-2-(4-chloro-3-(trifluoromethyl)phenyl)acetamide], the values for the GI50 in data set [3] and in data set [4] (setting [5]) were 0.004 µM and 0.075 µM, respectively.

In the case of `COc1cc2nccc(Oc3ccc(NC(=O)Cc4ccc(Cl)c(C(F)(F)F)c4)cc3C)c2cc1OC` [Example 27, N-(3-methyl-4-((6,7-dimethoxyquinolin-4-yl)oxy)phenyl)-2-(4-chloro-3-(trifluoromethyl)phenyl)acetamide], the GI50 in data set [3] is 0.003 µM; in data set [4] (setting [5]) it was 0.041 µM.

As for `COc1cc2nccc(Oc3ccc(C(=O)NCc4cccc(C(F)(F)F)c4)cc3)c2cc1OC` [Comparative Example 3, N-(3-(trifluoromethyl)benzyl)-4-((6,7-dimethoxyquinolin-4-yl)oxy)benzamide, reference compound], the GI50 was 1.23 µM in data set [3] and 2.4 µM in data set [4] (setting [5]).

With `COc1cc2nccc(Oc3ncc(NC(=O)Cc4cccc(C(F)(F)F)c4)cc3Cl)c2cc1OC` [Comparative Example 2, N-(5-chloro-6-((6,7-dimethoxyquinolin-4-yl)oxy)pyridin-3-yl)-2-(3-(trifluoromethyl)phenyl)acetamide, reference compound], the GI50 in data set [3] worked out at 2.54 µM; in data set [4] (setting [5]), 7.84 µM.

Consider `COc1cc2nccc(Oc3ccc(NC(=O)Cc4ccc5ccccc5c4)cc3)c2cc1OC` [Example 19, N-(4-((6,7-dimethoxyquinolin-4-yl)oxy)phenyl)-2-(naphth-2-yl)acetamide], for which the GI50 in data set [3] amounted to 0.0008 µM; in data set [4] (setting [5]) it was 0.074 µM.

As to `COc1cc2nccc(Oc3ccc(NC(=O)Cc4ccccc4)cn3)c2cc1OC` [Comparative Example 1, N-(6-((6,7-dimethoxyquinolin-4-yl)oxy)pyridin-3-yl)-2-phenylacetamide, reference compound], the GI50 in data set [3] and in data set [4] (72 h) was above 10 µM each time.

Regarding `COc1cc2nccc(Oc3ccc(NC(=O)Cc4cccc(C(F)(F)F)c4)c(Cl)c3)c2cc1OC` [Example 6, N-(2-chloro-4-((6,7-dimethoxyquinolin-4-yl)oxy)phenyl)-2-(3-(trifluoromethyl)phenyl)acetamide], the GI50 in data set [3] was 0.017 µM; in data set [4] (setting [5]) it was 0.06 µM.

The values above are taken from patent US20250186452A1, “NOVEL USE OF QUINOLINE COMPOUND” (TARAPEUTICS SCIENCE INC., priority 2022, published 2025).
